The record followed here is patent publication US20250144067A1, “PERSONALIZED STARVATION THERAPY FOR CANCER” (Faeth Therapeutics, Inc., priority 2021, published 2025).

Where a name gives a salt, the structure may show the parent alone.

For assay [1], the system named is NCI-H292 lung cancer cells. Kind of assay: FDA drug screening, complete media vs cholesterol-free media without statin (TABLE 1). Type of assay: cell-based, human.
Assay [2] deals with NCI-H292 lung cancer cells. The assay can be described thus: FDA drug screening, complete media vs cholesterol-free media with simvastatin (TABLE 2). It is filed as cell-based, human. The note with it: for Cholesterol-free media + simvastatin (0.04 μM) / Complete Media: NCI-H292 cells.
Setting [3] is: NCI-H292 cells, cholesterol-free media without statin, FDA drug library screen.
The mark [4] stands for this setting: NCI-H292 cells, complete media, FDA drug library screen.
Where [5] appears, read: complete vs cholesterol-free media, […].
Setting [6] is: Complete minus Cholesterol-free, greater than 0 enhanced anti-cancer activity, about 0 neutral, below 0 antagonists.
Where [7] appears, read: NCI-H292 cells in cholesterol-free media without statin.
Where [8] appears, read: NCI-H292 cells in complete media.
The mark [9] stands for this setting: cholesterol-free media with simvastatin 0.04 μM, FDA drug library screen (TABLE 2).
[10] abbreviates: complete media, FDA drug library screen (TABLE 2).
[11] abbreviates: complete media minus cholesterol-free media + simvastatin (0.04 μM), >0 enhanced anti-cancer activity, about 0 neutral, <0 antagonist.
Where [12] appears, read: drug in cholesterol-free media with simvastatin 0.04 μM.
[13] abbreviates: complete media vs cholesterol-free media + simvastatin (0.04 μM), >0 enhanced anti-cancer activity, about 0 neutral, <0 antagonist.
Where [14] appears, read: FDA drug library screen, cholesterol-free media with simvastatin 0.04 μM.
The mark [15] stands for this setting: FDA drug library screen, complete media.
[16] abbreviates: complete media vs cholesterol-free media + simvastatin (0.04 μM), […].
[17] abbreviates: NCI-H292 cells, cholesterol-free media without statin.
[18] abbreviates: complete vs cholesterol-free media, greater than 0 enhanced anti-cancer activity, about 0 neutral, below 0 antagonists.
The mark [19] stands for this setting: Complete minus Cholesterol-free, >0 enhanced anti-cancer activity, about 0 neutral, <0 antagonist.
Setting [20] is: FDA library drug in cholesterol-free media with simvastatin 0.04 μM.
The mark [21] stands for this setting: FDA library drug in complete media.
[22] abbreviates: Complete minus Cholesterol-free, greater than 0 enhanced anti-cancer activity, about 0 neutral, below 0 antagonist.
The mark [23] stands for this setting: NCI-H292 cells, FDA drug library screen, cholesterol-free media without statin.
[24] abbreviates: NCI-H292 cells, FDA drug library screen, complete media.
The mark [25] stands for this setting: complete media minus cholesterol-free media + simvastatin, >0 enhanced anti-cancer activity, about 0 neutral, <0 antagonist.

With `O=C1C=C2C=C[C@@H]3C[C@@]2(O1)[C@H]1CCCCN31` [(−)-Securinine], the Cholesterol-free in assay [1] (setting [3]) is recorded as 0.7572. In assay [1] (setting [4]), the Complete worked out at 0.9271. Also, the Difference worked out at 0.17 in assay [1] (setting [5]) and 0.12 in assay [2] (complete media minus cholesterol-free media + simvastatin, […]). In assay [2] (cholesterol-free media with simvastatin 0.04 μM, […]), the “Cholesterol-free media + simvastatin (0.04 μM)” value worked out at 0.8712. Moreover, the “Complete Media” value in assay [2] (complete media, […]) is given as 0.9865.

On to `COC(=O)N[C@H](C(=O)N1CCC[C@H]1c1nc(-c2ccc3c(c2)O[C@@H](c2ccccc2)n2c-3cc3cc(-c4c[nH]c([C@@H]5CCCN5C(=O)[C@@H](NC(=O)OC)C(C)C)n4)ccc32)c[nH]1)C(C)C` [Elbasvir], for which the Difference in assay [1] (setting [6]) is −0.70; in assay [2] (setting [11]), −0.04. The compound also displayed a Cholesterol-free in assay [1] (setting [7]) of 1.334. For the same compound, the Complete in assay [1] (setting [8]) is 0.6346. Further, the “Cholesterol-free media + simvastatin (0.04 μM)” value in assay [2] (setting [9]) was 0.9746. Further, the “Complete Media” value in assay [2] (setting [10]) turned out to be 0.9378.

For `N#CC[C@H](C1CCCC1)n1cc(-c2ncnc3[nH]ccc23)cn1` [Ruxolitinib (S enantiomer)], the values for the Difference in assay [1] (setting [6]) and in assay [2] (setting [13]) were −0.48 and −0.26, respectively. In addition, in assay [1] (setting [7]), the Cholesterol-free came to 1.03. Further, in assay [1] (setting [8]), the Complete stood at 0.5541. Moreover, the “Cholesterol-free media + simvastatin (0.04 μM)” value in assay [2] (setting [12]) came to 0.9634. Moreover, the “Complete Media” value in assay [2] (drug in complete media) is listed as 0.7007.

Take `CN1CCc2nc(C(=O)N[C@@H]3C[C@@H](C(=O)N(C)C)CC[C@@H]3NC(=O)C(=O)Nc3ccc(Cl)cn3)sc2C1` [Edoxaban]: the Cholesterol-free in assay [1] (setting [3]) was 1.603. In assay [1] (setting [4]), this compound yielded a Complete of 1.759. The Difference is on record as 0.16 in assay [1] (complete vs cholesterol-free media, >0 enhanced anti-cancer activity, about 0 neutral, <0 antagonist) and −0.22 in assay [2] (setting [13]). Further, the “Cholesterol-free media + simvastatin (0.04 μM)” value in assay [2] (setting [12]) turned out to be 1.032. In assay [2] (drug in complete media), the “Complete Media” value was found to be 0.8097.

On to `N[C@@H](CCC(=O)O)C(=O)O` [(S)-Glutamic acid], for which the Cholesterol-free in assay [1] (setting [3]) was 1.299. For the same compound, the Complete in assay [1] (setting [4]) was determined as 1.635. The Difference in assay [1] (setting [5]) is given as 0.34; in assay [2] (setting [16]) it was −0.09. Also, in assay [2] (setting [14]), the “Cholesterol-free media + simvastatin (0.04 μM)” value amounted to 0.9378. For the same compound, the “Complete Media” value in assay [2] (setting [15]) amounted to 0.8445.

As to `CN(C)[C@@H]1C(O)=C(C(N)=O)C(=O)[C@@]2(O)C(O)=C3C(=O)c4c(O)cccc4[C@@](C)(O)[C@H]3C[C@@H]12` [Tetracycline (hydrochloride)], in assay [1] (setting [17]), the Cholesterol-free amounted to 1.387. This compound displayed a Complete in assay [1] (NCI-H292 cells, complete media) of 0.93. The Difference is −0.46 in assay [1] (setting [18]) and 0.00 in assay [2] (setting [11]). Besides, the “Cholesterol-free media + simvastatin (0.04 μM)” value in assay [2] (setting [9]) is given as 0.7005. For the same compound, the “Complete Media” value in assay [2] (setting [10]) came to 0.7002.

With `CC(C)(C)CC(=O)OCC(=O)[C@@]12OC(C)(C)O[C@@H]1C[C@H]1[C@@H]3CCC4=CC(=O)C=C[C@]4(C)[C@@]3(F)[C@@H](O)C[C@@]12C` [Triamcinolone hexacetonide], the Difference in assay [1] (setting [19]) is −0.20; in assay [2] (setting [13]), −0.40. Besides, in assay [1] (setting [17]), the Cholesterol-free was determined as 0.7329. This compound showed a Complete in assay [1] (NCI-H292 cells, complete media) of 0.5285. Besides, the “Cholesterol-free media + simvastatin (0.04 μM)” value in assay [2] (setting [20]) is 1.053. Moreover, the “Complete Media” value in assay [2] (setting [21]) was found to be 0.6525.

As to `CC(c1cc2ccccc2s1)N(O)C(N)=O` (stereo not shown) [Zileuton], the Difference was −0.21 in assay [1] (setting [19]) and −0.24 in assay [2] (setting [13]). Besides, the Cholesterol-free in assay [1] (setting [17]) is given as 1.451. This compound also gave a Complete in assay [1] (NCI-H292 cells, complete media) of 1.238. The “Cholesterol-free media + simvastatin (0.04 μM)” value in assay [2] (setting [12]) was 1.302. Moreover, in assay [2] (drug in complete media), the “Complete Media” value was 1.066.

Take `CC(CCc1ccccc1)NCC(O)c1ccc(O)c(C(N)=O)c1` (stereo not shown) [Labetalol (hydrochloride)]: the Difference in assay [1] (setting [6]) is recorded as −0.64; in assay [2] (setting [11]), −0.02. This compound registered a Complete in assay [1] (setting [8]) of 0.9816. The “Cholesterol-free media + simvastatin (0.04 μM)” value in assay [2] (setting [9]) is 1.147. In addition, the “Complete Media” value in assay [2] (setting [10]) is 1.128.

As to `C[C@H]1CN(C[C@H](Cc2ccccc2)C(=O)NCC(=O)O)CC[C@@]1(C)c1cccc(O)c1` [Alvimopan (dihydrate)], the results for the Difference in assay [1] (setting [6]) and in assay [2] (setting [13]) were −1.02 and −0.27, respectively. This compound also yielded a Cholesterol-free in assay [1] (setting [7]) of 1.958. This compound displayed a Complete in assay [1] (setting [8]) of 0.9383. Further, in assay [2] (setting [20]), the “Cholesterol-free media + simvastatin (0.04 μM)” value was found to be 1.255. Besides, the “Complete Media” value in assay [2] (setting [21]) came to 0.9864.

Take `NCCC(O)(P(=O)(O)O)P(=O)(O)O` [Pamidronic acid]: the figures for the Difference in assay [1] (setting [22]) and in assay [2] (setting [11]) were −0.18 and −0.04, respectively. Moreover, the Cholesterol-free in assay [1] (setting [23]) was determined as 0.8132. This compound had a Complete in assay [1] (setting [24]) of 0.6309. Besides, in assay [2] (setting [9]), the “Cholesterol-free media + simvastatin (0.04 μM)” value was determined as 1.09. For the same compound, in assay [2] (setting [10]), the “Complete Media” value was 1.049.

In the case of `OC[C@H]1O[C@@H](O[C@H]2[C@H](O)[C@@H](O)[C@@H](O)O[C@@H]2CO)[C@H](O)[C@@H](O)[C@H]1O` [Lactose], the Difference in assay [1] (setting [6]) is −0.48; in assay [2] (setting [13]) it was −0.28. Besides, in assay [1] (setting [8]), the Complete is given as 0.6552. Also, the “Complete Media” value in assay [2] (setting [21]) was 0.9497.

Consider Fenoldopam (mesylate), for which the values for the Difference in assay [1] (setting [22]) and in assay [2] (setting [13]) were −0.12 and −0.26, respectively. The Cholesterol-free in assay [1] (setting [23]) is listed as 0.8131. The compound further gave a Complete in assay [1] (setting [24]) of 0.6882. Also, the “Cholesterol-free media + simvastatin (0.04 μM)” value in assay [2] (setting [12]) is listed as 1.028. The “Complete Media” value in assay [2] (drug in complete media) was 0.7708.

In assay [1] (setting [17]), `C(=C\c1ccccc1)/CN1CCN(C(c2ccccc2)c2ccccc2)CC1` [Cinnarizine] gave a Cholesterol-free of 1.344. In assay [1] (NCI-H292 cells, complete media), this compound came in with a Complete of 0.9213. In addition, the Difference in assay [1] (setting [18]) is given as −0.42; in assay [2] (setting [25]), 0.11. In addition, in assay [2] (cholesterol-free media with simvastatin 0.04 μM, cell growth value in FDA drug screen), the “Cholesterol-free media + simvastatin (0.04 μM)” value is listed as 1.061.

In assay [1] (setting [17]), `CCCCCOc1ccccc1/C(=C\SC)n1ccnc1` [Neticonazole (hydrochloride)] had a Cholesterol-free of 1.192. In addition, the Complete in assay [1] (NCI-H292 cells, complete media) amounted to 0.8359. The Difference in assay [1] (setting [18]) is given as −0.36; in assay [2] (setting [25]) it was 0.45. In addition, in assay [2] (setting [15]), the “Complete Media” value was 0.9839.

The compound `CN1CCC(=C2c3ccccc3Sc3ccccc32)CC1` [Pimethixene maleate] displayed a Cholesterol-free in assay [1] (setting [17]) of 1.492. The compound further came in with a Complete in assay [1] (NCI-H292 cells, complete media) of 1.142. In addition, the Difference in assay [1] (setting [18]) is reported as −0.35; in assay [2] (setting [13]) it was −0.18. In addition, in assay [2] (setting [12]), the “Cholesterol-free media + simvastatin (0.04 μM)” value is 1.097. The “Complete Media” value in assay [2] (drug in complete media) is recorded as 0.9153.

On to `Cc1[nH]cnc1CN1CCc2c(c3ccccc3n2C)C1=O` [Alosetron (Hydrochloride)], for which the results for the Difference in assay [1] (setting [19]) and in assay [2] (setting [13]) were 0.05 and −0.10, respectively. In assay [1] (setting [3]), the Cholesterol-free is listed as 1.398. In addition, in assay [1] (setting [4]), the Complete is listed as 1.45. Moreover, in assay [2] (setting [14]), the “Cholesterol-free media + simvastatin (0.04 μM)” value stood at 0.9241. Further, the “Complete Media” value in assay [2] (setting [15]) is 0.826.

With `CCC[S+]([O-])c1ccc2[nH]c(NC(=O)OC)nc2c1` (stereo not shown) [Albendazole sulfoxide], in assay [1] (setting [17]), the Cholesterol-free was found to be 1.467. Moreover, the Complete in assay [1] (NCI-H292 cells, complete media) is 1.005. Also, the Difference in assay [1] (setting [5]) is −0.46; in assay [2] (setting [16]), −0.25. Also, the “Cholesterol-free media + simvastatin (0.04 μM)” value in assay [2] (setting [12]) is listed as 1.376. Also, the “Complete Media” value in assay [2] (drug in complete media) is recorded as 1.125.

As for `CC(C)[C@H](N)C(=O)OCC(CO)OCn1cnc2c(=O)nc(N)[nH]c21` (stereo partly shown) [Valganciclovir (hydrochloride)], the values for the Difference in assay [1] (setting [19]) and in assay [2] (setting [25]) were −0.03 and 0.22, respectively. Further, in assay [1] (setting [3]), the Cholesterol-free is listed as 1.042. In addition, in assay [1] (setting [4]), the Complete is 1.007. In addition, the “Cholesterol-free media + simvastatin (0.04 μM)” value in assay [2] (setting [14]) is 0.9599. Besides, the “Complete Media” value in assay [2] (setting [15]) is listed as 1.178.
